Tests used:
[1] = tested on: contractile response of isolated guinea pig ileum to angiotensin I; test: Inhibition of contractile response of isolated guinea pig ileum to angiotensin I; assay type: cell-based; details: Cavia porcellus, angiotensin I 0.1 μg/ml; compound added 5 min before; 30° C.; read-out: Angiotensin I IC50 (50% inhibition of angiotensin I activity inducing the contraction of guinea pig ileum)
From the text: As the method of measurement of angiotensin I-converting enzyme activity, bioassay for the contractile response of isolated smooth muscle or the pressor response of normal animals and biochemical assay for the enzyme isolated from lung or other organs of animals are known. The former is found more advantageous than the latter for the examination of the convertion of angiotensin I to angiotensin II in vivo.
In the present study, therefore, we adopted the bioassay for contractile response of isolated guinea pig ileum to angiotensin I.
(§1) Measurement of inhibitory activity of angiotensin I-converting enzyme
(§2) Isolated guinea pig ileum was suspended in the organ bath containing 20 ml of Tyrode's solution of 30° C. gassed with 95% O2 +5% CO2. The contraction induced by the addition of angiotensin I (0.1 μg/ml) at intervals of 10 minutes was recorded on a recticorder (Nihon Koden) for 90 seconds using FD pick up (ST-1T-H, Nihon Koden).
(§3) The test compounds were added to the bath 5 minutes before the addition of angiotensin I.
The inhibitory activity of angiotensin I-converting enzyme was calculated by the following formula. [formula] A: contractile intensity of angiotensin I before addition of the compound B: contractile intensity of angiotensin I after addition of the compound

[2] = tested on: pressor response to angiotensin I; test: Inhibition of pressor response to angiotensin I in rats after oral administration; assay type: in vivo, rat (male Wistar); details: angiotensin I 300 ng/kg i.v.
Procedure: Male Wistar strain rats weighing about 200-300 g were used.
Under ether anesthesia, polyethylene cannulae are inserted into carotid arthery and jugular vein. The cannula to carotid artery is connected to an electric transducer, while the cannula to jugular vein is connected to an apparatus for continuous infusion. After the complete recovery from anesthesia, angiotensin I is infused intravenously in a dose of 300 ng/kg by the apparatus for continuous infusion, and the pressor response is recorded by polygraph (Nihon Koden, RM-150).
The compounds of this invention suspended in 0.5% tragacanth solution are administered orally in a dose of 0.3 ml per 100 g of body weight, and the pressor response to angiotensin I infused intravenously is measured with time.
The inhibitory activity of the compounds against angiotensin I-converting enzyme is expressed as the percent inhibition of pressor response to angiotensin I.

[3] = tested on: contractile response to bradykinin (isolated guinea pig ileum); test: Augmentation of contractile response of isolated guinea pig ileum to bradykinin; assay type: cell-based; details: Cavia porcellus, bradykinin 0.005 μg/ml; compound added 5 min before; 30° C.; read-out: Bradykinin AC50 (50% augmentation of bradykinin activity inducing the contraction of guinea pig ileum)
Procedure: as §2, §3
From the fact that kininase II, which destroys bradykinin having contractive action on isolated guinea pig ileum, is thought to be identical with angiotensin I-converting enzyme, augmentation of the contractile response to bradykinin by test compounds was examined by using bradykinin (0.005 μg/ml) in place of angiotensin I according to the above mentioned method.

[4] = target: T1, angiotensin I-converting enzyme (Oryctolagus cuniculus, UniProt P12822); test: Inhibition of angiotensin I-converting enzyme by spectrophotometry (HHL substrate); assay type: biochemical; details: enzyme from rabbit lung; 5 mM HHL; pH 8.3; 37° C., 30 min
T1 construct: angiotensin I-converting enzyme extracted from rabbit lung; from tissue; host or cells: rabbit lung
T1 sequence (P12822 34-1310): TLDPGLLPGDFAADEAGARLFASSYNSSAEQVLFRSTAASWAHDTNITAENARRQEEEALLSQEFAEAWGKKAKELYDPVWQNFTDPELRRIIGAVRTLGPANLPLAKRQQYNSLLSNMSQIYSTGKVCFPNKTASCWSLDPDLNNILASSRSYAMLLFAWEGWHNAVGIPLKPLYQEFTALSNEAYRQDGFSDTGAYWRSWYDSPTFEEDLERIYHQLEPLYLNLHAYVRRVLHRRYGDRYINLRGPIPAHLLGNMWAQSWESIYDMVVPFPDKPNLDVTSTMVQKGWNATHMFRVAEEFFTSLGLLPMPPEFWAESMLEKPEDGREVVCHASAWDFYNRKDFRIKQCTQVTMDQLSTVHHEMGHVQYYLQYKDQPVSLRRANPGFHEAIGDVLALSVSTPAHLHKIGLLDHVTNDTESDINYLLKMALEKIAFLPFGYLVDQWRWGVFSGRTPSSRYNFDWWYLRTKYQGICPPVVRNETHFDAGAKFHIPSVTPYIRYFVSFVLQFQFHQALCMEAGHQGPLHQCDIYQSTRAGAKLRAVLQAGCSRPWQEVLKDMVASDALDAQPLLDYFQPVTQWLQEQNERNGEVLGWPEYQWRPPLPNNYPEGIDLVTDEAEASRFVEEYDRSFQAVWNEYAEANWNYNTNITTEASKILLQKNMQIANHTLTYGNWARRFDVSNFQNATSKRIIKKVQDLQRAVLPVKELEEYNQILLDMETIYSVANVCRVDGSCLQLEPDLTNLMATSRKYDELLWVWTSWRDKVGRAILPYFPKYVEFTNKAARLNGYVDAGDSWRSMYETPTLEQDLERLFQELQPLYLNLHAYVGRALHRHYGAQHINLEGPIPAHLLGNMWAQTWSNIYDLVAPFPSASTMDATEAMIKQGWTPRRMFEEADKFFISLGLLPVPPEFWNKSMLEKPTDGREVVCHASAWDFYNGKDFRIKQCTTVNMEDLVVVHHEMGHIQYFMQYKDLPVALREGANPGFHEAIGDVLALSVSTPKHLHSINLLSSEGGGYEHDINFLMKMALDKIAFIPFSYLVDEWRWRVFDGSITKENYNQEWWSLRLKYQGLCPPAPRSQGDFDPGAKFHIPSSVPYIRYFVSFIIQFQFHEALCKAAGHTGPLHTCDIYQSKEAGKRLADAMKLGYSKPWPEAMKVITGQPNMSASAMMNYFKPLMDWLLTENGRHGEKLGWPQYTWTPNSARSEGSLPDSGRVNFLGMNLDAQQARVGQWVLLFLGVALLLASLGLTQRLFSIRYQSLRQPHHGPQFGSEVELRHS
Procedure: That is, the absorbance of hippuric acid was measured, which is liberated by incubating hippuryl-L-histidyl-L-leucine (HHL) as substrate in the presence of angiotensin I-converting enzyme extracted from rabbit lung.
as §1
The reaction mixture is as follows:
100 mM phosphate buffer (pH 8.3)
10^-3 ~10^-9 M enzyme inhibitor
0.25 ml of the above mixture was incubated at 37° C. for 30 minutes and the reaction was stopped by adding 0.25 ml of 1 N hydrochloric acid. To this solution, 1.5 ml of ethyl acetate was added in order to extract hippuric acid. 1.0 ml of ethyl acetate layer was collected and evaporated to dryness, and the residue obtained was dissolved in 1.0 ml of water.
The inhibitory activity of angiotensin I-converting enzyme was calculated by the following formula: [formula]

C[C@H](CS)C(=O)N1C(C2CCCCC2)SC[C@H]1C(=O)O (stereo partly shown) [Compound 4]
IC50 [1]: 50 nM | Inhibition (%) of pressor response to angiotensin I, 5 min ([2]; 5 min, dose: 3, 45, 49 1.8 mg/kg, 4, 46 1.3, 50 1.4, 76 2.0, 77 1.5): 46.7% | Inhibition (%) of pressor response to angiotensin I, 15 min ([2]; 15 min, dose: 3, 45, 49 1.8 mg/kg, 4, 46 1.3, 50 1.4, 76 2.0, 77 1.5): 46.5% | Inhibition (%) of pressor response to angiotensin I, 25 min ([2]; 25 min, dose: 3, 45, 49 1.8 mg/kg, 4, 46 1.3, 50 1.4, 76 2.0, 77 1.5): 37.2% | Inhibition (%) of pressor response to angiotensin I, 35 min ([2]; 35 min, dose: 3, 45, 49 1.8 mg/kg, 4, 46 1.3, 50 1.4, 76 2.0, 77 1.5): 32.2% | Inhibition (%) of pressor response to angiotensin I, 45 min ([2]; 45 min, dose: 3, 45, 49 1.8 mg/kg, 4, 46 1.3, 50 1.4, 76 2.0, 77 1.5): 28.8% | Inhibition (%) of pressor response to angiotensin I, 55 min ([2]; 55 min, dose: 3, 45, 49 1.8 mg/kg, 4, 46 1.3, 50 1.4, 76 2.0, 77 1.5): 27.5% | Inhibition (%) of pressor response to angiotensin I, 65 min ([2]; 65 min, dose: 3, 45, 49 1.8 mg/kg, 4, 46 1.3, 50 1.4, 76 2.0, 77 1.5): 27.5% | Inhibition (%) of pressor response to angiotensin I, 75 min ([2]; 75 min, dose: 3, 45, 49 1.8 mg/kg, 4, 46 1.3, 50 1.4, 76 2.0, 77 1.5): 13.8% | Inhibition (%) of pressor response to angiotensin I, 85 min ([2]; 85 min, dose: 3, 45, 49 1.8 mg/kg, 4, 46 1.3, 50 1.4, 76 2.0, 77 1.5): 14.5% | Inhibition (%) of pressor response to angiotensin I, 95 min ([2]; 95 min, dose: 45, 49 1.8 mg/kg, 4, 46 1.3, 50 1.4, 76 2.0, 77 1.5): 10.3% | AC50 [3]: 2 nM | IC50 [4]: 120 nM

C[C@H](CS)C(=O)N1C(c2cccc([N+](=O)[O-])c2)SC[C@H]1C(=O)O (stereo partly shown) [Compound 34]
IC50 [1]: 180 nM | AC50 [3]: 2.5 nM | IC50 [4]: 400 nM

O=C(O)[C@@H]1CSC(c2ccccc2O)N1C(=O)CS (stereo partly shown) [Compound 44]
IC50 [1]: 560 nM | AC50 [3]: 5 nM | IC50 [4]: 2200 nM

O=C(O)[C@@H]1CSC(c2cccc(O)c2)N1C(=O)CCS (stereo partly shown) [Compound 52]
IC50 [1]: 71 nM | AC50 [3]: 1.5 nM | IC50 [4]: 210 nM

C[C@H](CS)C(=O)N1C(c2cccc(O)c2)SC[C@H]1C(=O)O (stereo partly shown) [Compound 54]
IC50 [1]: 150 nM | AC50 [3]: 1.7 nM | IC50 [4]: 230 nM

O=C(O)[C@@H]1CSC(c2ccc(O)cc2)N1C(=O)CCS (stereo partly shown) [Compound 56]
IC50 [1]: 460 nM | AC50 [3]: 5.5 nM | IC50 [4]: 1200 nM

O=C(O)[C@@H]1CSC(c2ccc(O)c(O)c2)N1C(=O)CCS (stereo partly shown) [Compound 58]
IC50 [1]: 520 nM | AC50 [3]: 5.8 nM | IC50 [4]: 2600 nM

C[C@H](CS)C(=O)N1C(c2cc(Cl)ccc2O)SC[C@H]1C(=O)O (stereo partly shown) [Compound 60]
IC50 [1]: 92 nM | AC50 [3]: 2 nM | IC50 [4]: 75 nM

COc1ccccc1C1SC[C@@H](C(=O)O)N1C(=O)[C@H](C)CS (stereo partly shown) [Compound 64]
IC50 [1]: 500 nM | AC50 [3]: 8 nM | IC50 [4]: 420 nM

COc1ccc(C2SC[C@@H](C(=O)O)N2C(=O)[C@H](C)CS)cc1 (stereo partly shown) [Compound 68]
IC50 [1]: 88 nM | AC50 [3]: 2.1 nM | IC50 [4]: 750 nM

COc1cc(C2SC[C@@H](C(=O)O)N2C(=O)[C@H](C)CS)cc(OC)c1OC (stereo partly shown) [Compound 71]
IC50 [1]: 410 nM | AC50 [3]: 9.4 nM | IC50 [4]: 390 nM

COc1cccc(C2SC[C@@H](C(=O)O)N2C(=O)CCS)c1O (stereo partly shown) [Compound 73]
IC50 [1]: 36 nM | AC50 [3]: 1.1 nM | IC50 [4]: 93 nM

COc1ccc(C2SC[C@@H](C(=O)O)N2C(=O)CCS)c(O)c1 (stereo partly shown) [Compound 75]
IC50 [1]: 140 nM | AC50 [3]: 3.1 nM | IC50 [4]: 200 nM

COc1cc(C2SC[C@@H](C(=O)O)N2C(=O)[C@H](C)CS)ccc1O (stereo partly shown) [Compound 79]
IC50 [1]: 210 nM | AC50 [3]: 3.2 nM | IC50 [4]: 1300 nM

C[C@H](CS)C(=O)N1C(c2ccc3c(c2)OCO3)SC[C@H]1C(=O)O (stereo partly shown) [Compound 81]
IC50 [1]: 140 nM | AC50 [3]: 0.94 nM | IC50 [4]: 240 nM

C[C@H](CS)C(=O)N1C(c2cccc3ccccc23)SC[C@H]1C(=O)O (stereo partly shown) [Compound 83]
IC50 [1]: 360 nM | AC50 [3]: 13 nM | IC50 [4]: 1300 nM

C[C@H](CS)C(=O)N1C(c2ccco2)SC[C@H]1C(=O)O (stereo partly shown) [Compound 85]
IC50 [1]: 240 nM | AC50 [3]: 3.7 nM | IC50 [4]: 340 nM

Cc1ccc(C2SC[C@@H](C(=O)O)N2C(=O)[C@H](C)CS)o1 (stereo partly shown) [Compound 87]
IC50 [1]: 460 nM | AC50 [3]: 2.6 nM | IC50 [4]: 730 nM

C[C@H](CS)C(=O)N1C(c2cccs2)SC[C@H]1C(=O)O (stereo partly shown) [Compound 91]
IC50 [1]: 700 nM | AC50 [3]: 10 nM | IC50 [4]: 370 nM

C[C@H](CS)C(=O)N1C(c2cccnc2)SC[C@H]1C(=O)O (stereo partly shown) [Compound 93]
IC50 [1]: 140 nM | AC50 [3]: 2.9 nM | IC50 [4]: 840 nM

C[C@H](CS)C(=O)N1C(c2ccncc2)SC[C@H]1C(=O)O (stereo partly shown) [Compound 95]
IC50 [1]: 83 nM | AC50 [3]: 3.1 nM | IC50 [4]: 110 nM

C[C@H](CS)C(=O)N1CSC[C@H]1C(=O)O [Compound 96, reference compound]
IC50 [1]: 170 nM | AC50 [3]: 2.6 nM | IC50 [4]: 260 nM

From US4356183A, “Antihypertensive 4-thiazolidinecarboxylic acids (pyridyl derivatives)” (Santen Pharmaceutical Co., Ltd., priority 1978, dated 1982)
